The target in this test is 3',5'-cyclic-AMP phosphodiesterase 4B (Homo sapiens) (UniProt Q07343). Description: Inhibition of PDE4B (unknown origin) using FAM-cAMP as substrate at 10 uM after 60 min by fluorescence polarization assay. On the technique in general: Fluorescence polarisation rises when a labelled molecule tumbles more slowly, as on binding a larger partner.
Chain of 3',5'-cyclic-AMP phosphodiesterase 4B (Homo sapiens) (Q07343 whole entry): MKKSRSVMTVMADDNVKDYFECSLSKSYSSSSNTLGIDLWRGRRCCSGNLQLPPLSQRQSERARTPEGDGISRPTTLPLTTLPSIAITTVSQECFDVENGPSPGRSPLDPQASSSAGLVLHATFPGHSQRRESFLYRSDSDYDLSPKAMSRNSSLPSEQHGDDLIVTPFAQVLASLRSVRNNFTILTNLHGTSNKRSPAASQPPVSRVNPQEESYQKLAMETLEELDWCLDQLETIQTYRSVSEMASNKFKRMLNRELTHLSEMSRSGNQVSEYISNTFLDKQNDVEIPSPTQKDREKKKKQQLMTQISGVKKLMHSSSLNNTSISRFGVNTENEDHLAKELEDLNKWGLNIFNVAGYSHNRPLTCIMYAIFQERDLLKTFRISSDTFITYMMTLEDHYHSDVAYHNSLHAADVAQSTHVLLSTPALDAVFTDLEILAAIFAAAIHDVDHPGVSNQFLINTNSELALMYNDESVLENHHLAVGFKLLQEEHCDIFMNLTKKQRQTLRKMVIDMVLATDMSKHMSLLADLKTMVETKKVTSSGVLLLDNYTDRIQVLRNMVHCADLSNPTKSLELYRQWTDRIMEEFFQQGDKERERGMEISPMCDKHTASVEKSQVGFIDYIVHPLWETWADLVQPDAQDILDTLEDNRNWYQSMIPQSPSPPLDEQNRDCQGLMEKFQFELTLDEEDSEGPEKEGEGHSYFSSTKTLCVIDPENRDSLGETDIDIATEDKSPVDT

The term inhibition denotes the drop in the measured response relative to a control, in per cent. Read a low inhibition as little suppression. Compound `CCCCn1c(=O)c2ccccc2n(CCN2CCCCC2)c1=O` registered an inhibition of 11%.
The figure for `CCCCn1c(=O)c2ccccc2n(CCN2CCOCC2)c1=O` is 17%; for `CCCCn1c(=O)c2ccccc2n(CCN2CCN(c3ccccc3)CC2)c1=O` it is 25%.
As to `CCCCn1c(=O)c2ccccc2n(Cc2ccccc2)c1=O`, the inhibition amounted to 56%.
To `CCCCn1c(=O)c2ccccc2n(CCCN2CCN(c3ccccc3)CC2)c1=O` belongs 13%; to `CCCCn1c(=O)c2ccccc2n(CCCN2CCOCC2)c1=O`, 100%.
To `CCCCn1c(=O)c2ccccc2n(CCCN2CCCCC2)c1=O` belongs 11%.
To `CCCCn1c(=O)c2ccccc2n(CCCN(CC)CC)c1=O` belongs 9%; to `CCCCn1c(=O)c2ccccc2n(CC(=O)c2ccc(Cl)cc2)c1=O`, 8%; to `CCCCn1c(=O)c2ccccc2n(CCN(CC)CC)c1=O`, 8%.
`CCCCn1c(=O)c2ccccc2n(CC(=O)c2ccccc2)c1=O` registered an inhibition of 22%.

The values are drawn from ChEMBL document CHEMBL3046068, “Design, synthesis, and biological activity of certain quinazolinedione derivatives as potent phosphodiestrase4 inhibitors” (Med Chem Res, 2012).
